Assay results published in PubChem BioAssay (NCI).
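All cell lines were grown in 96-well plates and treated with compound for 48 hours. TGI marks complete inhibition of growth.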

Key:
Experiment in all cases: growth of human tumour cells (NCI), 48 h
[1] = system: NCI-H23 lung
[2] = system: U251 CNS
[3] = system: SK-MEL-28 melanoma
[4] = system: HCT-116 colon
[5] = system: OVCAR-8 ovarian
[6] = system: KM20L2 colon
[7] = system: COLO 205 colon
[8] = system: UACC-62 melanoma
[9] = system: A549 NSCLC
[10] = system: DMS 114 small cell lung
[11] = system: HT29 colon
[12] = system: XF 498 CNS
[13] = system: TK-10 renal
[14] = system: IGROV1 ovarian
[15] = system: M19-MEL melanoma
[16] = system: SK-MEL-2 melanoma
[17] = system: OVCAR-5 ovarian
[18] = system: EKVX NSCLC
[19] = system: HL-60(TB) leukemia
[20] = system: LXFL 529 NSCLC
[21] = system: HOP-62 NSCLC
[22] = system: SW-620 colon
[23] = system: SF-268 CNS
[24] = system: K-562 leukemia
[25] = system: NCI-H460 lung
[26] = system: SR leukemia
[27] = system: SF-295 CNS
[28] = system: UO-31 renal
[29] = system: SK-OV-3 ovarian
[30] = system: OVCAR-3 ovarian
[31] = system: RXF 393 renal
[32] = system: MOLT-4 leukemia
[33] = system: CCRF-CEM leukemia
[34] = system: M14 melanoma
[35] = system: OVCAR-4 ovarian
[36] = system: KM12 colon
[37] = system: SN12C renal
[38] = system: SK-MEL-5 melanoma
[39] = system: UACC-257 melanoma
[40] = system: RPMI-8226 leukemia
[41] = system: HOP-92 NSCLC
[42] = system: NCI-H522 lung
[43] = system: MALME-3M melanoma
[44] = system: SNB-19 CNS
[45] = system: SNB-78 CNS
[46] = system: LOX IMVI melanoma
[47] = system: DLD-1 colon
[48] = system: HOP-18 NSCLC
[49] = system: 786-0 renal
[50] = system: A498 renal
[51] = system: HCT-15 colon
[52] = system: SF-539 CNS
[53] = system: DMS 273 small cell lung
[54] = system: ACHN renal
[55] = system: SNB-75 CNS
[56] = system: HCC-2998 colon
[57] = system: NCI-H226 lung

Q: `COc1cccc(N2C(Cl)C(=O)C2c2c[nH]c3ccccc23)c1` (stereo not given) was tested. Which TGI [1] did it give?
A: > 100 µM

Q: And the TGI [2]?
A: > 100 µM

Q: And the TGI [3]?
A: > 100 µM

Q: What about the TGI [4] of the same molecule?
A: > 100 µM

Q: What about the TGI [5] of the same molecule?
A: > 100 µM

Q: And the TGI [6]?
A: > 100000 nM

Q: What about the TGI [7] of the same molecule?
A: > 100 µM

Q: What about the TGI [8] of the same molecule?
A: > 100 µM

Q: And the TGI [9]?
A: > 100 µM

Q: And the TGI [10]?
A: > 100 µM

Q: What about the TGI [11] of the same molecule?
A: > 100 µM

Q: And the TGI [12]?
A: > 100 µM

Q: And the TGI [13]?
A: > 100 µM

Q: What about the TGI [14] of the same molecule?
A: > 100 µM

Q: What about the TGI [15] of the same molecule?
A: > 100 µM

Q: What about the TGI [16] of the same molecule?
A: > 100 µM

Q: And the TGI [17]?
A: > 100 µM

Q: And the TGI [18]?
A: > 100 µM

Q: What about the TGI [19] of the same molecule?
A: > 100 µM

Q: And the TGI [20]?
A: > 100 µM

Q: What about the TGI [21] of the same molecule?
A: > 100 µM

Q: And the TGI [22]?
A: > 100 µM

Q: And the TGI [23]?
A: > 100 µM

Q: And the TGI [24]?
A: > 100 µM

Q: And the TGI [25]?
A: > 100 µM

Q: And the TGI [26]?
A: > 100 µM

Q: What about the TGI [27] of the same molecule?
A: > 100 µM

Q: And the TGI [28]?
A: > 100 µM

Q: What about the TGI [29] of the same molecule?
A: > 100 µM

Q: What about the TGI [30] of the same molecule?
A: > 100 µM

Q: And the TGI [31]?
A: > 100 µM

Q: What about the TGI [32] of the same molecule?
A: > 100 µM

Q: What about the TGI [33] of the same molecule?
A: > 100 µM

Q: And the TGI [34]?
A: > 100 µM

Q: What about the TGI [35] of the same molecule?
A: > 100 µM

Q: What about the TGI [36] of the same molecule?
A: > 100 µM

Q: What about the TGI [37] of the same molecule?
A: > 100 µM

Q: And the TGI [38]?
A: > 100 µM

Q: What about the TGI [39] of the same molecule?
A: > 100 µM

Q: What about the TGI [40] of the same molecule?
A: > 100 µM

Q: What about the TGI [41] of the same molecule?
A: > 100 µM

Q: And the TGI [42]?
A: > 100 µM

Q: And the TGI [43]?
A: > 100 µM

Q: And the TGI [44]?
A: > 100 µM

Q: How did the TGI [45] turn out when `CN(C)CCC(/C=C/c1ccccc1)=N\Nc1ccccc1` was run?
A: 14.7 µM

Q: What about the TGI [1] of the same molecule?
A: 13.9 µM

Q: And the TGI [2]?
A: 4.58 µM

Q: And the TGI [3]?
A: 3.54 µM

Q: What about the TGI [4] of the same molecule?
A: 10.8 µM

Q: And the TGI [5]?
A: 23.9 µM

Q: What about the TGI [6] of the same molecule?
A: 655 nM

Q: And the TGI [46]?
A: 454 nM

Q: And the TGI [7]?
A: 3.7 µM

Q: What about the TGI [8] of the same molecule?
A: 3.26 µM

Q: And the TGI [9]?
A: 4.21 µM

Q: And the TGI [10]?
A: 17.3 µM

Q: What about the TGI [11] of the same molecule?
A: 15.4 µM

Q: What about the TGI [47] of the same molecule?
A: 12.5 µM

Q: And the TGI [48]?
A: 16.6 µM

Q: And the TGI [49]?
A: 11.1 µM

Q: And the TGI [13]?
A: 4.61 µM

Q: And the TGI [14]?
A: 16.5 µM

Q: What about the TGI [15] of the same molecule?
A: 3.63 µM

Q: What about the TGI [17] of the same molecule?
A: 3.97 µM

Q: And the TGI [18]?
A: 6.47 µM

Q: And the TGI [50]?
A: 28.2 µM

Q: And the TGI [19]?
A: 4.28 µM

Q: What about the TGI [20] of the same molecule?
A: 0.462 µM

Q: And the TGI [21]?
A: 8.93 µM

Q: What about the TGI [22] of the same molecule?
A: 2.06 µM

Q: And the TGI [23]?
A: 10.4 µM

Q: What about the TGI [24] of the same molecule?
A: 10.5 µM

Q: And the TGI [25]?
A: 10.7 µM

Q: What about the TGI [27] of the same molecule?
A: 2.21 µM

Q: What about the TGI [28] of the same molecule?
A: 2.8 µM

Q: And the TGI [51]?
A: 2430 nM

Q: And the TGI [29]?
A: 9.8 µM

Q: And the TGI [30]?
A: 6.5 µM

Q: What about the TGI [31] of the same molecule?
A: 18.6 µM

Q: What about the TGI [32] of the same molecule?
A: 15 µM

Q: And the TGI [52]?
A: 4.02 µM

Q: What about the TGI [53] of the same molecule?
A: 6.5 µM

Q: What about the TGI [33] of the same molecule?
A: 15.2 µM

Q: What about the TGI [54] of the same molecule?
A: 2310 nM

Q: What about the TGI [34] of the same molecule?
A: 13 µM

Q: And the TGI [35]?
A: 17.1 µM

Q: What about the TGI [36] of the same molecule?
A: 13.2 µM

Q: What about the TGI [37] of the same molecule?
A: 11.6 µM

Q: What about the TGI [38] of the same molecule?
A: 13.1 µM

Q: And the TGI [39]?
A: 9.76 µM

Q: And the TGI [40]?
A: 8.52 µM

Q: What about the TGI [42] of the same molecule?
A: 8.98 µM

Q: What about the TGI [55] of the same molecule?
A: 13.7 µM

Q: What about the TGI [43] of the same molecule?
A: 13.1 µM

Q: And the TGI [44]?
A: 14.1 µM

Q: Which TGI [1] does the source give for `Nc1c(C(=O)N/N=C/c2ccccc2)sc(=S)n1-c1ccccc1` here?
A: > 100 µM

Q: What about the TGI [2] of the same molecule?
A: > 100 µM

Q: What about the TGI [3] of the same molecule?
A: > 100 µM

Q: What about the TGI [4] of the same molecule?
A: > 100 µM

Q: And the TGI [5]?
A: > 100 µM

Q: And the TGI [7]?
A: > 100 µM

Q: And the TGI [8]?
A: > 100 µM

Q: And the TGI [9]?
A: > 100 µM

Q: And the TGI [11]?
A: > 100 µM

Q: What about the TGI [47] of the same molecule?
A: > 100 µM

Q: And the TGI [48]?
A: > 100 µM

Q: What about the TGI [13] of the same molecule?
A: > 100 µM

Q: What about the TGI [56] of the same molecule?
A: > 100 µM

Q: And the TGI [14]?
A: > 100 µM

Q: And the TGI [15]?
A: > 100 µM

Q: And the TGI [19]?
A: > 100 µM

Q: And the TGI [20]?
A: > 100 µM

Q: And the TGI [21]?
A: > 100 µM

Q: What about the TGI [22] of the same molecule?
A: > 100 µM

Q: And the TGI [23]?
A: > 100 µM

Q: And the TGI [24]?
A: > 100 µM

Q: What about the TGI [25] of the same molecule?
A: > 100 µM

Q: And the TGI [26]?
A: > 100 µM

Q: And the TGI [27]?
A: > 100 µM

Q: And the TGI [28]?
A: > 100 µM

Q: And the TGI [29]?
A: > 100 µM

Q: What about the TGI [30] of the same molecule?
A: > 100 µM

Q: And the TGI [57]?
A: > 100 µM

Q: And the TGI [32]?
A: > 100 µM

Q: What about the TGI [52] of the same molecule?
A: > 100 µM

Q: What about the TGI [33] of the same molecule?
A: > 100 µM

Q: And the TGI [54]?
A: > 100000 nM

Q: And the TGI [36]?
A: > 100 µM

Q: What about the TGI [38] of the same molecule?
A: > 100 µM

Q: And the TGI [39]?
A: > 100 µM

Q: And the TGI [40]?
A: > 100 µM

Q: And the TGI [41]?
A: > 100 µM

Q: What about the TGI [42] of the same molecule?
A: > 100 µM

Q: And the TGI [55]?
A: > 100 µM

Q: What about the TGI [44] of the same molecule?
A: > 100 µM
